In the NIST ThermoML archive (doi:10.1016/j.fluid.2010.02.012):

Test: excess molar enthalpy (molar enthalpy of mixing); xn = mol fraction of the nth substance listed
Details: 298.18 K, 101 kPa, Liquid, Calvet calorimetry

CCCCCCCCCC [decane] + CCO
Details	excess molar enthalpy [kcal/mol]
x2 = 0.0881	0.12
x2 = 0.1338	0.142
x2 = 0.1766	0.159
x2 = 0.2665	0.174
x2 = 0.3141	0.176
x2 = 0.4314	0.176
x2 = 0.5931	0.161
x2 = 0.6501	0.153
x2 = 0.7248	0.141
x2 = 0.7837	0.128
x2 = 0.8079	0.123
x2 = 0.848	0.105
x2 = 0.8829	0.0894
x2 = 0.9377	0.0576
x2 = 0.962	0.038
